US9273055B2, “Tyrosine kinase inhibitors” (Chembridge Corporation, priority 2008, dated 2016)
“And” between values parts separate entries of the source, which are not always exact repeats. Equal entries are not always repeated. Where two headings read alike, the source gives them in different places. Values belong to the molecule of their own block, whether it stands above or below them.

Experiments:
[1] = biological target: NPM-ALK C1156Y (Homo sapiens, UniProt Q9UM73, C1156Y); assay: BaF3 stable clone growth (WST-1), NPM-ALK C1156Y; conditions: BaF3 stables
Chain of NPM-ALK C1156Y (Q9UM73 1060-1620 C1156Y limits assumed): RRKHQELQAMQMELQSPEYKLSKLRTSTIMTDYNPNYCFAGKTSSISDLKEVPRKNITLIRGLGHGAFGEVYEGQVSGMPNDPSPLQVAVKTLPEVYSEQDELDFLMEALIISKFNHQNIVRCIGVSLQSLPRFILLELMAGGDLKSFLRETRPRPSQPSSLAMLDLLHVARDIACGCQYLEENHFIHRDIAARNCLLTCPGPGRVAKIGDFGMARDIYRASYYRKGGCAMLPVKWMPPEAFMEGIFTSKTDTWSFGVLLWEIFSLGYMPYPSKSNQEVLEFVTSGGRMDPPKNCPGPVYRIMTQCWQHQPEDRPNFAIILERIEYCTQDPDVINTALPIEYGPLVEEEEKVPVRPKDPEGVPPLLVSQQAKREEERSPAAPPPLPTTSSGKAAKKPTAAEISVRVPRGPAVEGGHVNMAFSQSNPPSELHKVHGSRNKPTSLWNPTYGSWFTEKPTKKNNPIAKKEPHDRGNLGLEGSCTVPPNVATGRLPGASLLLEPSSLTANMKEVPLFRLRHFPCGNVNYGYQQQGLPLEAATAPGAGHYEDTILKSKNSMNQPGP

[2] = biological target: NPM-ALK R1275Q (Homo sapiens, UniProt Q9UM73, R1275Q); assay: BaF3 stable clone growth (WST-1), NPM-ALK R1275Q; conditions: read-out: BaF3 Stables IC50 ± SEE, R1275Q; NPM-ALK construct
Chain of NPM-ALK R1275Q (Q9UM73 1060-1620 R1275Q limits assumed): as the sequence (Q9UM73 1060-1620 C1156Y limits assumed) above, with Y97C, R216Q counted along it

[3] = biological target: T1, FLT3-ITD (Homo sapiens, UniProt P36888, cells depend on it, form not given); assay: BaF3 stable clone growth (WST-1), FLT3-ITD; conditions: read-out: BaF3 Stables IC50 ± SEE, FLT3-ITD
T1 sequence (P36888 with tags, fused parts or gaps INS600HVDFREYEYD): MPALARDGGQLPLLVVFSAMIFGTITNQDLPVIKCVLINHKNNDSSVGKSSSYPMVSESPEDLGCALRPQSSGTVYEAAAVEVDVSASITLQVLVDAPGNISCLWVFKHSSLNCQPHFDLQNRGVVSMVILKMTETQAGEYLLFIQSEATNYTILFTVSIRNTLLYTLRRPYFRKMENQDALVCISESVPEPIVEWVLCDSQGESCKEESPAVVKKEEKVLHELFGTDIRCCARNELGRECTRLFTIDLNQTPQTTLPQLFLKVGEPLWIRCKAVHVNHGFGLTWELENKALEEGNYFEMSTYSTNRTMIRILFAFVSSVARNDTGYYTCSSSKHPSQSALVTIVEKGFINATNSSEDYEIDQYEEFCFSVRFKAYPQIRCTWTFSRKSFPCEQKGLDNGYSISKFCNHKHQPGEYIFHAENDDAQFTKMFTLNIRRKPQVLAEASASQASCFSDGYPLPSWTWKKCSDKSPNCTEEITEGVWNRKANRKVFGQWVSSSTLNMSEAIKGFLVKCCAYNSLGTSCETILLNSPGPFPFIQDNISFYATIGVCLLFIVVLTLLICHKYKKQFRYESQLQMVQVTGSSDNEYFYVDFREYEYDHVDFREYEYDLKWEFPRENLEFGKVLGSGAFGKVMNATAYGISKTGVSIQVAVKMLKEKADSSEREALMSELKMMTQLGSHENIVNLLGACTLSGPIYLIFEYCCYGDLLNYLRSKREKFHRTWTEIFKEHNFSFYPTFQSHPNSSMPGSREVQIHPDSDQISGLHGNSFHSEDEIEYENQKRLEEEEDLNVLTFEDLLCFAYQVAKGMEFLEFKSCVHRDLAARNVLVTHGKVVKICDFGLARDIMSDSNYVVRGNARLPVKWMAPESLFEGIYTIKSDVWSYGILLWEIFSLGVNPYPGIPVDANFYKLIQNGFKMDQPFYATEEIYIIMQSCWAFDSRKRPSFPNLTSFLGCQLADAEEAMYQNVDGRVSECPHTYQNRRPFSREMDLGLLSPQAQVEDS

[4] = biological target: EML4-ALK C1156Y (Homo sapiens, UniProt Q9UM73, C1156Y); assay: BaF3 stable clone growth (WST-1), EML4-ALK C1156Y; conditions: BaF3 stables
Chain of EML4-ALK C1156Y (Q9UM73 1060-1620 C1156Y limits assumed): as the sequence (Q9UM73 1060-1620 C1156Y limits assumed) above

[5] = in vitro; conditions: rat, pH 7.4
[6] = Caco-2 cell permeation study; format: in vitro ADME; conditions: human; for Papp A→B at 2 h, 10 μM / Papp B→A at 2 h, 10 μM: Caco-2, 10 μM; for Papp A→B at 2 h, 10 μM: apical pH 6.5, 2 h; for Papp B→A at 2 h, 10 μM: basolateral pH 7.4, 2 h
[7] = Phase I microsome metabolic stability, rat; conditions: pH 7.4
[8] = biological target: hERG potassium channel current expressed in HEK293 cells (Homo sapiens, UniProt Q12809); assay: hERG automatic patch clamp (PatchXpress 7000A)
Chain of hERG potassium channel current expressed in HEK293 cells (Q12809 whole entry): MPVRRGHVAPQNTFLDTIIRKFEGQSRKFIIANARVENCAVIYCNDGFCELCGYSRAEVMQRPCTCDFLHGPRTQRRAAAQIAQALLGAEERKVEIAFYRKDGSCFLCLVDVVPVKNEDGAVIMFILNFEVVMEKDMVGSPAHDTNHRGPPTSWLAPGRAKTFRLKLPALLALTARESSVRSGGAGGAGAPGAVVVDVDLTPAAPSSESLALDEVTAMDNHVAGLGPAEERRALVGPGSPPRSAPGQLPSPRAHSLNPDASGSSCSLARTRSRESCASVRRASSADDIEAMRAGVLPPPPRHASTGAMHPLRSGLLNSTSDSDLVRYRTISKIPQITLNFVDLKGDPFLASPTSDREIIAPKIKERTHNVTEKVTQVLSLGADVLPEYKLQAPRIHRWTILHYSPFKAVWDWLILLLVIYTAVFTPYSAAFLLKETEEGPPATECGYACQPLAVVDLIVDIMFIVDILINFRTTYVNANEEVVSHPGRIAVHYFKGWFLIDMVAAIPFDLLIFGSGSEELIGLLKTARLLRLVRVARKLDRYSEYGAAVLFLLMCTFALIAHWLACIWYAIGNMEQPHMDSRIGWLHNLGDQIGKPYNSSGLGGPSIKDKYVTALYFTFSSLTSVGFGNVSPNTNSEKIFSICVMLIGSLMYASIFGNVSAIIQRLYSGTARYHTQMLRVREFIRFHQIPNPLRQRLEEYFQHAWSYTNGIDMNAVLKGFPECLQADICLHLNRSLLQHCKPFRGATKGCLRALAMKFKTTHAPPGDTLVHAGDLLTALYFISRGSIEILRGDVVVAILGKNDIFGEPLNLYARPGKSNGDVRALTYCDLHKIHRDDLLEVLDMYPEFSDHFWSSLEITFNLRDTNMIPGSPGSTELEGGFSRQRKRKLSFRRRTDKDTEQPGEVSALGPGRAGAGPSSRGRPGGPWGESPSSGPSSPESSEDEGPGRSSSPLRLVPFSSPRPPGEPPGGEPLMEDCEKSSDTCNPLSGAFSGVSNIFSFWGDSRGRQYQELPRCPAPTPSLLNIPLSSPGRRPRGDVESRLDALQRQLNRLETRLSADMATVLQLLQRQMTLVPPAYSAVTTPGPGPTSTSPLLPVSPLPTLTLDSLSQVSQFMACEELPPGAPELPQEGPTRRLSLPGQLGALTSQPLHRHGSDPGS

[9] = biological target: EML4-ALK R1275Q (Homo sapiens, UniProt Q9UM73, R1275Q); assay: BaF3 stable clone growth (WST-1), EML4-ALK R1275Q; conditions: read-out: BaF3 Stables IC50 ± SEE, R1275Q; EML4-ALK construct
Chain of EML4-ALK R1275Q (Q9UM73 1060-1620 R1275Q limits assumed): as the sequence (Q9UM73 1060-1620 C1156Y limits assumed) above, with Y97C, R216Q counted along it

[10] = tested on: NB-1 neuroblastoma cells; assay: 3 day cell viability (WST-1), NB-1; format: cell-based; conditions: 72 h, 3 days
[11] = Phase I microsome metabolic stability, human; conditions: pH 7.4
[12] = biological target: T2, TrkA (Homo sapiens, UniProt P04629); assay: In vitro kinase activity assay (LANCE TR-FRET), TrkA; format: biochemical
T2 construct: purchased Invitrogen
T2 sequence (P04629 33-796): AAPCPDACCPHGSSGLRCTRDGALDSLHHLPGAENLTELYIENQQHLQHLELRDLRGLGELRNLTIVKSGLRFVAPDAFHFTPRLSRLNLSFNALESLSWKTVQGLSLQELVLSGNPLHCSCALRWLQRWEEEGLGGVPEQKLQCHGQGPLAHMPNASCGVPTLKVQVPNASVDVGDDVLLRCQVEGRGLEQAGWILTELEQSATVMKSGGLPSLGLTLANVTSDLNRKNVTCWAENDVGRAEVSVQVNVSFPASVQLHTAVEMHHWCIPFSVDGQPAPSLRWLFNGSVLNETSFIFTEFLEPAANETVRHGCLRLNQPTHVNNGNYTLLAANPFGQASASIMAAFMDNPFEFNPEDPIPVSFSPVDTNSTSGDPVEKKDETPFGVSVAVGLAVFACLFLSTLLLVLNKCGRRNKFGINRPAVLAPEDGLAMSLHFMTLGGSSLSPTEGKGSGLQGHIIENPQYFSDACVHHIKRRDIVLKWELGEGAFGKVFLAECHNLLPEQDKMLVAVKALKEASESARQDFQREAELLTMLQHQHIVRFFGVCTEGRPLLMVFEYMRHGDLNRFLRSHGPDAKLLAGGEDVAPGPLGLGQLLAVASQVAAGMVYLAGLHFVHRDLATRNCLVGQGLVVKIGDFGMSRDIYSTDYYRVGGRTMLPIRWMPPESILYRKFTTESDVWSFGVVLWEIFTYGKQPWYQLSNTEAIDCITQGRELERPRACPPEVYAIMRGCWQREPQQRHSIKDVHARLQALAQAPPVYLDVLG

[13] = biological target: T3, ALK (Homo sapiens, UniProt Q9UM73); assay: In vitro kinase activity assay (LANCE TR-FRET), ALK; format: biochemical
T3 construct: purchased Invitrogen
T3 sequence (Q9UM73 19-1620): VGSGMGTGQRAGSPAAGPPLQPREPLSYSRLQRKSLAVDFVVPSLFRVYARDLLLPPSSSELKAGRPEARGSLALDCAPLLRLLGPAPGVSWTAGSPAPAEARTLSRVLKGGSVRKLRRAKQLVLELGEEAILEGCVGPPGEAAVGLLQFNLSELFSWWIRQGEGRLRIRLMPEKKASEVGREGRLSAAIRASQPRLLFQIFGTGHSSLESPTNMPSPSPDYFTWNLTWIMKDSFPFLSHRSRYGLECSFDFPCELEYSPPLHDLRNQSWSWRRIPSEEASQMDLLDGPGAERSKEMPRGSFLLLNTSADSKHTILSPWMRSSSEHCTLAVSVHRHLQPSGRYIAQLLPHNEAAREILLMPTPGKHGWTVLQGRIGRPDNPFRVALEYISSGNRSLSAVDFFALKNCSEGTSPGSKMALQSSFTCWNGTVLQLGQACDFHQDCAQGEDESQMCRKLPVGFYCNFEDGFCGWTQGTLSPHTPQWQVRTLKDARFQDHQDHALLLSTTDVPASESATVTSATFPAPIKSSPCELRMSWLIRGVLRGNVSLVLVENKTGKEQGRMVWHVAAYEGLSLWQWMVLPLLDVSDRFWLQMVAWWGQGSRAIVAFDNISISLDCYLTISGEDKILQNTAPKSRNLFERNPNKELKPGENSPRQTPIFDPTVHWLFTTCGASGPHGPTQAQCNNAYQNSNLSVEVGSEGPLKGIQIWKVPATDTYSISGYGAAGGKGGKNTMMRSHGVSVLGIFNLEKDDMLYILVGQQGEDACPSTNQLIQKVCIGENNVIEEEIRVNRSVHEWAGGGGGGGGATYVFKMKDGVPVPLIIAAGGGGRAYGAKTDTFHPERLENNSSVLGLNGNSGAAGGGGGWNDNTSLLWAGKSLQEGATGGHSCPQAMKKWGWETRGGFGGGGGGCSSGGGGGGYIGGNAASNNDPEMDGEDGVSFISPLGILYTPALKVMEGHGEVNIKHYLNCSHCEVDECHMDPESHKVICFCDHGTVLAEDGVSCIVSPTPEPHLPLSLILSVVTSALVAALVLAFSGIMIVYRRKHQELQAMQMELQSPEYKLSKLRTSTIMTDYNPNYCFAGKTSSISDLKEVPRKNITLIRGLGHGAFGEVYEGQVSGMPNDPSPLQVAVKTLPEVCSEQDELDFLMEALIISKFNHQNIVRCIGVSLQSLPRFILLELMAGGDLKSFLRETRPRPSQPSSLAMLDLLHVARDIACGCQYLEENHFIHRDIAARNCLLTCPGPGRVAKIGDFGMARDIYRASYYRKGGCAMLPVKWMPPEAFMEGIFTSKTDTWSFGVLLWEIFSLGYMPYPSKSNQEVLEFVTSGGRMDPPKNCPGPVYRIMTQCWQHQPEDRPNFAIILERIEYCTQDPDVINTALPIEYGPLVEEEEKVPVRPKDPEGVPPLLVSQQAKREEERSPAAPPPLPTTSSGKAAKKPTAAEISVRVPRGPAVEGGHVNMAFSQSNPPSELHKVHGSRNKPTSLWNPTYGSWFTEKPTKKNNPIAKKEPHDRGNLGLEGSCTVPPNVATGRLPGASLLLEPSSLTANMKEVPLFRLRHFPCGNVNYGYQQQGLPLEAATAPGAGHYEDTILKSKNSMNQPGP

[14] = biological target: T4, cMET (Homo sapiens, UniProt P08581); assay: In vitro kinase activity assay (LANCE TR-FRET), cMET; format: biochemical
T4 construct: purchased Invitrogen

[15] = tested on: K299 lymphoma cells; assay: 3 day cell viability (WST-1), K299; format: cell-based; conditions: Homo sapiens, 72 h, 3 days
[16] = tested on: Caco-2 monolayers; assay: Caco-2 cell permeation study; format: in vitro ADME; conditions: for Papp A to B: apical pH 6.5, 2 h
[17] = Phase I microsome metabolic stability, mouse; format: in vitro ADME; conditions: 1.0 mg/ml microsomes
[18] = Rat pharmacokinetics / bioavailability; format: in vivo; conditions: for AUC(0-t): male, Sprague-Dawley, plasma, read-out: AUC0-1440 (converted)
[19] = Guinea pig pharmacokinetics; format: in vivo; conditions: 10 mg/kg PO
[20] = Dog pharmacokinetics; format: in vivo, beagle dog; conditions: 5 mg/kg PO
[21] = Mouse pharmacokinetics; format: in vivo; conditions: 10 mg/kg SC
[22] = tested on: U937 lymphoma cells; assay: 3 day cell viability (WST-1), U937; format: cell-based; conditions: 3 days
[23] = positive control run with the compound of that line, 10 μM

Molecule: 2-(4-(1-(5-Fluoro-2-methylphenyl)propan-2-ylamino)-2-oxo-1,2-dihydropyridin-3-yl)-6-(2-(dimethylamino)ethyl)-6,7-dihydroimidazo[4,5-f]isoindole-5(1H)-one [Compound 45]
reduced potency, C1156Y compared to NPM-ALK parent construct [1]: 1.6 fold
IC50 [2]: 81 ± 4.2 nM
GI50 [3]: > 1000 nM
reduced potency, C1156Y compared to EML4-ALK parent construct [4]: 1.3 fold

Molecule: C[C@@H](Cc1c(F)c(F)cc(F)c1F)Nc1cc[nH]c(=O)c1-c1nc2cc3c(cc2[nH]1)CN(C1CCN(C)CC1)C3=O [Compound 4, (S)-6-(1-Methylpiperidin-4-yl)-2-(2-oxo-4-(1-(2,3,5,6-tetrafluorophenyl)propan-2-ylamino)-1,2-dihydropyridin-3-yl)-6,7-dihydroimidazo[4,5-f]isoindol-5(3H)-one]
half-life at 0.5 μM [7]: > 120 min
microsomal CLint at 0.5 μM [7]: < 5.8 µL/min/mg
IC50 [8]: 2.72 µM
reduced potency, C1156Y compared to EML4-ALK parent construct [4]: 2.0 fold
Papp A→B at 2 h, 10 μM [6]: < 0.2 ×10⁻⁶ cm/s
Papp B→A at 2 h, 10 μM [6]: 20 ×10⁻⁶ cm/s
IC50 [9]: 2885 ± 20 nM
IC50 [10]: 257 nM
half-life at 0.5 μM [11]: > 120 min
microsomal CLint at 0.5 μM [11]: < 5.8 µL/min/mg

Molecule: C[C@@H](Cc1c(F)c(F)cc(F)c1F)Nc1cc[nH]c(=O)c1-c1nc2cc3c(cc2[nH]1)C(=O)N(c1ccc(F)nc1)C3=O [Compound 15, (S)-6-(6-Fluoropyridin-3-yl)-2-(2-oxo-4-((1-(2,3,5,6-tetrafluorophenyl)propan-2-yl)amino)-1,2-dihydropyridin-3-yl)imidazo[4,5-f]isoindole-5,7(1H,6H)-dione]
IC50 [14]: > 10 µM
Papp A→B at 2 h, 10 μM [6]: < 0.2 ×10⁻⁶ cm/s
Papp B→A at 2 h, 10 μM [6]: < 0.2 ×10⁻⁶ cm/s
IC50 [15]: > 10 µM

Molecule: (S)-6-(2-(Dimethylamino)ethyl)-2-(2-oxo-4-((1-(2,3,5,6-tetrafluorophenyl)propan-2-yl)amino)-1,2-dihydropyridin-3-yl)-6,7-dihydroimidazo[4,5-f]isoindol-5(3H)-one [Compound 1]
F [19]: 1%
IC50 ([8]; read-out: hERG inhib. IC50, HEK293, hERG tail current): 6.25 µM
Compound 1 (parameter cell as printed) [20]: 17.2 µg·min/mL
F [20]: 12%
GI50 [3]: > 3000 nM
F [21]: 30%
AUC0-1440 ([18]; 10 mg/kg I.V.): 329 µg·min/mL
CL ([18]; 10 mg/kg I.V.): 25.5 mL/min/kg
MRT ([18]; 10 mg/kg I.V.): 1362 min
T1/2 ([18]; 10 mg/kg I.V.): 1323 min
Vss ([18]; 10 mg/kg I.V.): 23.9 L/kg
AUC0-1440 ([18]; 10 mg/kg P.O.): 0.943 µg·min/mL
Cmax ([18]; 10 mg/kg P.O.): 2.21 ng/mL
F ([18]; 10 mg/kg P.O.): 0.287%
Tmax ([18]; 10 mg/kg P.O.): 113 min
IC50 [22]: 1600 nM

Other lines, results leading:

microsomal CLint at 0.5 μM [5]: < 5 µL/min/mg
Papp A→B at 2 h, 10 μM [6]: > 0.2 ×10⁻⁶ cm/s
Molecule: C[C@@H](Cc1cc(F)ccc1F)Nc1cc[nH]c(=O)c1-c1nc2cc3c(cc2[nH]1)C(=O)N(C)C3=O (stereo in doubt) [Compound 32, 2-(4-(1-(2,5-Difluorophenyl)propan-2-ylamino)-2-oxo-1,2-dihydropyridin-3-yl)-6-methylimidazo[4,5-f]isoindole-5,7(1H,6H)-dione]

IC50 [12]: 6.36 nM
IC50 [13]: 15.2 nM
Molecule: C[C@@H](Cc1c(F)c(F)cc(F)c1F)Nc1cc[nH]c(=O)c1-c1nc2cc3c(cc2[nH]1)C(=O)N(c1cccnc1)C3O (stereo partly drawn) [Compound 13, 7-Hydroxy-2-(2-oxo-4-(((S)-1-(2,3,5,6-tetrafluorophenyl)propan-2-yl)amino)-1,2-dihydropyridin-3-yl)-6-(pyridin-3-yl)-6,7-dihydroimidazo[4,5-f]isoindol-5(1H)-one]

Papp A to B ([16]; Caco-2, 10 μM): 1.7 10−6 cm/sec
Papp B to A ([16]; Caco-2, 10 μM, basolateral pH 7.4, 2 h): 1.4 10−6 cm/sec
Efflux Ratio ([16]; Caco-2, B to A / A to B): 0.5
Mouse LM-P1 Half-life ([17]; Phase I only, 0.5 μM): 54.06 min
half-life at 0.5 μM ([17]; mouse, liver microsomes, pH 7.4, Phase I only, read-out: Mouse LM-P1 Half-life): 12.8 min
Molecule: CC(Cc1cc(F)ccc1F)Nc1cc[nH]c(=O)c1-c1nc2cc3c(cc2[nH]1)CN(C)C3=O (centres unmarked) [Compound 33, 2-(4-(1-(2,5-Difluorophenyl)propan-2-ylamino)-2-oxo-1,2-dihydropyridin-3-yl)-6-methyl-6,7-dihydroimidazo[4,5-f]isoindol-5(1H)-one]

Papp A to B ([16]; Caco-2, 10 μM): >0.2 10−6 cm/sec
Papp A→B at 2 h, 10 μM [6]: < 0.2 ×10⁻⁶ cm/s
Molecule: CC(Cc1cc(F)ccc1F)Nc1cc[nH]c(=O)c1-c1nc2cc3c(cc2[nH]1)C(=O)N(CC(O)CO)C3=O [Compound 34, 2-(4-(1-(2,5-Difluorophenyl)propan-2-ylamino)-2-oxo-1,2-dihydropyridin-3-yl)-6-(R)-2,3-dihydroxypropyl)imidazo[4,5-f]isoindole-5,7(1H,6H)-dione]

half-life at 0.5 μM [5]: 8.88 min
F ([18]; 10 mg/kg P.O.): 0.402%
AUC(0-t) ([18]; iv, 10 mg/kg I.V.): 8850 ng·h/mL
AUC(0-t) ([18]; po, 10 mg/kg P.O.): 35.5 ng·h/mL
Molecule: CC(Cc1cc(F)ccc1F)Nc1cc[nH]c(=O)c1-c1nc2cc3c(cc2[nH]1)CNC3=O (centres unmarked) [Compound 53]

Pos Ctrl (Papp): Propranolol Papp [16, 23]: 13.7 and 14.3 and 11.8
Pos Ctrl: Propranolol Recovery [16, 23]: 63% and 26%
recovery at 2 h, 10 μM ([6]; Caco-2, Pos Ctrl: Propranolol Recovery, positive control run with the compound of that line, 10 μM): 44%
Papp at 2 h, 10 μM ([6]; Caco-2, positive control run with the compound of that line, 10 μM): 14 ×10⁻⁶ cm/s
Molecule: CC(C)NCC(O)COc1cccc2ccccc12 (centres unmarked) [Propranolol, reference compound]
